We go through one compound from patent US20070026051A1, “Use of tripolidine in providing refreshedness on waking” (priority 2003, published 2007).

Series [1] relates to patients with temporary sleep disturbance. Kind of series: Clinical trial: wrist actimetry (SDI, time to sleep onset). The class given is in vivo, human. Further details: SDI compared to placebo: dose or concentration left out as unconfirmed. From the text:
The efficacy of triprolidine in enabling a patient to feel refreshed or alert upon waking after taking triprolidine prior to sleeptime was investigated using patients with a history of sleep disorders and utilising triprolidine prepared in accordance with example 1.
(§1) The study herein utilised the following determination methods:— • (a) Karolinska scale as defined in: Int. J. Neuroscience 52 29-37 (1990); and—validation: Sleep 17 (3) 236-41 (1994) • (b) Loughborough Sleep log as defined in: Sleep 17 (2) 146-159 (1994); and • Sleep 18 (2) 127-134 (1995) • (c) Actimetry—AW4 actimeters (Cambridge Neurotechnology) were worn continuously throughout the study. A button was pressed at night when the subject desired to go to sleep and again in the morning upon waking. The results of the actimeter study were analysed in the manner defined by Horne et al (Sleep, 17(2); 146-159). SDI % was calculated as follows:— SDI=Number of 30 second epochs with movement×100 • Number of 30 second epochs from total time spent in bed This is the measure of: • 1. The length of time it took to fall asleep • 2. Any awakenings throughout the sleep period • Expressed as a % of total time spent in bed. Study Objectives • To evaluate the effects of two doses of triprolidine compared with placebo. Study Design […]
Male and Female candidates aged 18 years and above were recruited to one of five research centres by means of local advertising. […]
In the trial, patients were tested during a seven day period and the results have been analysed for a mean of three days in the middle of this period. […]
(§2) Generally the treatment groups were well balanced in terms of the demographic data. Unless otherwise mentioned all group data was analysed using ANOVA. In two cases, namely, how the patient felt 15 minutes after awakening in the Loughborough Sleep Log and the Karolinska Sleepiness Scale at 20 minutes, the two variables were analysed using ANCOVA by including the weekend and the mean of Friday/Saturday/Sunday night as a covariate. […]

Series [2] has the same test system. Kind of series: Clinical trial: Loughborough sleep log (subjective). The class given is in vivo, human. Also noted: dose or concentration left out as unconfirmed. Particulars: mean of the 3 nights, p<0.05.
Text: as §1
Candidates were required to complete a questionnaire 15 minutes after awaking on the feeling of refreshedness assessed on a 5-point scale, the Loughborough sleep log.
Generally the treatment groups were well balanced in terms of the demographic data. Unless otherwise mentioned all group data was analysed using ANOVA. […]

Series [3] has the same test system. Kind of series: Clinical trial: Karolinska 9-point sleepiness scale. It counts as in vivo, human.
Text: The study herein utilised the following determination methods:— • (a) Karolinska scale as defined in: Int. J. Neuroscience 52 29-37 (1990); and—validation: Sleep 17 (3) 236-41 (1994) • (b) Loughborough Sleep log as defined in: Sleep 17 (2) 146-159 (1994); and • Sleep 18 (2) 127-134 (1995) • (c) Actimetry—AW4 actimeters (Cambridge Neurotechnology) were worn continuously throughout the study. A button was pressed at night when the subject desired to go to sleep and again in the morning upon waking. The results of the actimeter study were analysed in the manner defined by Horne et al (Sleep, 17(2); 146-159). SDI % was calculated as follows:— SDI=Number of 30 second epochs with movement×100 • Number of 30 second epochs from total time spent in bed This is the measure of: • 1. The length of time it took to fall asleep • 2. Any awakenings throughout the sleep period • Expressed as a % of total time spent in bed. Study Objectives • To evaluate the effects of two doses of triprolidine compared with placebo. Study Design
A multiple-dose, placebo-controlled, parallel-group, double-blind, randomised study investigating the effects of 2.5 mg and 5 mg triprolidine in patients with temporary sleep disturbance.
Male and Female candidates aged 18 years and above were recruited to one of five research centres by means of local advertising. Candidates were screened by means of a telephone questionnaire and selected candidates invited for interview at the research centre. Key inclusion criteria used to select candidates for the study were: • A record of poor sleep at least 2 nights per week • A record of poor sleep for at least 1 week but not more than 3 months • Sleep disturbance not caused by underlying disease • No excess use of alcohol or drugs • Sleep disturbance affected daytime functioning
The candidates came to the research centre on Thursday or Friday and were fitted with a wrist actimeter (AW4 from Cambridge Technology) to establish a baseline measure for SDI and were provided with diary cards to record subjective assessments for the Loughborough Sleep Log and the Karolinska Sleepiness Scale. They returned to the investigational site on the Monday and were issued with the study compositions (2.5 mg triprolidine, 5 mg triprolidine or placebo). […]
as §2

The subject of the next series is volunteers. The note with it: single doses 10 mg or 20 mg sustained release at bedtime; cited from earlier work.
The mark [4] stands for this setting: both treatments (2.5 mg and 5 mg), every treatment night.
Setting [5] is: 2.5 mg triprolidine, mean of the 3 nights.

Regarding `Cc1ccc(/C(=C\CN2CCCC2)c2ccccn2)cc1` [triprolidine], in series [1] (setting [4]), the “SDI as compared with placebo” value is reported as “reduced” and the “sleep latency onset as compared with placebo” value was “reduced”. For the same compound, the “SDI compared to placebo” value in series [1] (triprolidine, mean of the 3 nights, p<0.01) is reported as “significantly reduced”. Further, the “feeling of refreshedness 15 minutes after waking vs placebo (Loughborough sleep log)” value in series [2] is listed as “more refreshed”. Also, in series [3] (setting [5]), the “percentage of people feeling alert, very alert or extremely alert on waking vs placebo (Karolinska log)” value was “greater percentage”; the “percentage of people feeling sleepy, some effort, or very sleepy, great effort to keep awake on waking vs placebo (Karolinska log)” value is “lower percentage”; the “residual hangover effects/morning grogginess” value was “no evidence of residual hangover effects/morning grogginess”. Further, the daytime sleepiness entry in series [3] (either dose of triprolidine) is listed as “lack of daytime sleepiness”. Further, in the series on volunteers, the “sleep onset latency (time required to fall asleep) compared with placebo” value is “did not significantly alter”, the “total sleep time compared with placebo” value was “no effect” and the “wakefulness during sleep compared with placebo” value was “no effect”.
